Where a name gives a salt, the structure may show the parent alone. Read-outs that look alike come from different tables or passages of the source.
Tests used:
Type in all cases: biochemical
[1] = biological target: T1, human JAK3 (a.a. 781-1124) (Homo sapiens, UniProt P52333); assay: In vitro JAK kinase assay (HTRF, phosphorylation of a biotinylated peptide), JAK3
T1 construct: JAK3 (a.a. 781-1124); His tag (N); made in house; host or cells: insect cells (baculovirus)
Outline: (§1)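 Kinase activity was measured as phosphorylation of a biotinylated peptide, with ATP at 90 μM for JAK1, 30 μM for JAK2 and 3 μM for JAK3. Reactions ran 1 hr at room temperature, were stopped with EDTA plus SA-APC and Eu-Py20, and were read by HTRF after 40 minutes of antibody binding.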

[2] = biological target: T2, human JAK1 (a.a. 837-1142) (Homo sapiens, UniProt P23458); assay: In vitro JAK kinase assay (HTRF, phosphorylation of a biotinylated peptide), JAK1; settings: read-out: JAK1 IC50
T2 construct: human JAK1 (a.a. 837-1142); His tag (N); made in house; host or cells: insect cells (baculovirus)
Outline: as §1

[3] = biological target: T3, Recombinant Human Anaplastic Lymphoma Kinase (Homo sapiens, UniProt Q9UM73); assay: ALK HTRF kinase assay
T3 construct: purchased Invitrogen, Carlsbad, Calif
Outline: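 Biotinylated peptide substrate, recombinant human ALK; detection via europium-chelate antibody to phosphotyrosine paired with streptavidin-APC. Potency expressed as IC50 from four-parameter curve fitting.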

[4] = biological target: TYK2 (Homo sapiens, UniProt P29597); assay: TYK2 kinase inhibition (Table A1)
[5] = biological target: T4, human JAK2 (a.a. 828-1132) (Homo sapiens, UniProt O60674); assay: In vitro JAK kinase assay (HTRF, phosphorylation of a biotinylated peptide), JAK2
T4 construct: JAK2 (a.a. 828-1132); His tag (N); made in house; host or cells: insect cells (baculovirus)
Outline: as §1

[6] = compound at a concentration of 500 nM or 1 mM (not specified), cells shown as percentage
[7] = Table B1, cells without percent sign
[8] = method AA1 (3 μM ATP) or AA2 (1000 μM ATP), not stated per value
[9] = method AA1 (90 μM ATP) or AA2 (1000 μM ATP), not stated per value
[10] = compound at 500 nM or 1 mM, 90 μM ATP
[11] = method AA1 (30 μM ATP) or AA2 (1000 μM ATP), not stated per value

T4 sequence (O60674 828-1132): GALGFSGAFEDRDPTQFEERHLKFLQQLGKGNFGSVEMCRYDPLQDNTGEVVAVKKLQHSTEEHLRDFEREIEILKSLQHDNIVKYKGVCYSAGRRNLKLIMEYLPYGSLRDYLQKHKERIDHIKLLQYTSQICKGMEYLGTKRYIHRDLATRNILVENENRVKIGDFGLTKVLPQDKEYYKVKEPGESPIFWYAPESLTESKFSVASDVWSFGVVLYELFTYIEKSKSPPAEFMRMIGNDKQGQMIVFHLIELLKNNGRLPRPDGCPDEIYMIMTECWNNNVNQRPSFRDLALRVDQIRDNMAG
T1 sequence (P52333 781-1124): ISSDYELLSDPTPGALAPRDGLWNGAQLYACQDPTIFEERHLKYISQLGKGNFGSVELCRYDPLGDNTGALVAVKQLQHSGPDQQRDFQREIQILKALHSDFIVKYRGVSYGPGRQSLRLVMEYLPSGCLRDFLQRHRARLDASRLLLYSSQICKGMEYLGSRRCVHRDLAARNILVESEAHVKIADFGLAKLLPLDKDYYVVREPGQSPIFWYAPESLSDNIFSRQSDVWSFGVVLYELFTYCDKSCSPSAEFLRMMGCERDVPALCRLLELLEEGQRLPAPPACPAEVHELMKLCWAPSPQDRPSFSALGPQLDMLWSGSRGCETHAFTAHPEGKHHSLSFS
TYK2, sequence (P29597 whole entry): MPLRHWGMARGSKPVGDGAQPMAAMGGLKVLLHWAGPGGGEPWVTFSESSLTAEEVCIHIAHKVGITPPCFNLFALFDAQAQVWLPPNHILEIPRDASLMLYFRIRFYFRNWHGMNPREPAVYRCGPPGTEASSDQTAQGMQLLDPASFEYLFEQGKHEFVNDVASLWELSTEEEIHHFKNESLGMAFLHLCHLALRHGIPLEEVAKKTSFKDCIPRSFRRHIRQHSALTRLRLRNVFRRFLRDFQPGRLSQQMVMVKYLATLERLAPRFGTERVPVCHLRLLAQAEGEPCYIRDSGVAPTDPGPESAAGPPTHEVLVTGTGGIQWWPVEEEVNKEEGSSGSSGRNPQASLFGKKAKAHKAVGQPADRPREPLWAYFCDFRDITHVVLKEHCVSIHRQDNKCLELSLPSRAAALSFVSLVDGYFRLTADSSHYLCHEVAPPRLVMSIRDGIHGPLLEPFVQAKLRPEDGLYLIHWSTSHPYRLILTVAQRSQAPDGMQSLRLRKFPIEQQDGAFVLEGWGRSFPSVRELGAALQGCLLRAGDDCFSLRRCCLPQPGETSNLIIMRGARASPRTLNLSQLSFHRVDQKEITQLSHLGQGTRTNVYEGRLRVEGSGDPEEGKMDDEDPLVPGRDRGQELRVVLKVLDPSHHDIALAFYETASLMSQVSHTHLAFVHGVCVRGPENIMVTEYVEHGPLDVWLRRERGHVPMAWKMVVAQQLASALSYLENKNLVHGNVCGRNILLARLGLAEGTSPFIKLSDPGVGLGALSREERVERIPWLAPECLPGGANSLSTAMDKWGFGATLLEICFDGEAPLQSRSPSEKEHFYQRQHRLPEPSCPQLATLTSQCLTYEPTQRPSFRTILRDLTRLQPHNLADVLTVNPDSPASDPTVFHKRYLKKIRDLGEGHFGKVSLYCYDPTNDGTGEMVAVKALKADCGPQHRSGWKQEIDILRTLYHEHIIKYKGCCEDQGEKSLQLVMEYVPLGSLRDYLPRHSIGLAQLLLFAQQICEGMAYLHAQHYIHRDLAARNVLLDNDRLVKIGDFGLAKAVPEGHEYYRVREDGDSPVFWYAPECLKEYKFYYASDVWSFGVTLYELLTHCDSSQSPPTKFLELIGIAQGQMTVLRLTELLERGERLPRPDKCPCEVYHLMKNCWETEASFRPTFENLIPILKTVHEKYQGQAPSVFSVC
T2 sequence (P23458 849-1154): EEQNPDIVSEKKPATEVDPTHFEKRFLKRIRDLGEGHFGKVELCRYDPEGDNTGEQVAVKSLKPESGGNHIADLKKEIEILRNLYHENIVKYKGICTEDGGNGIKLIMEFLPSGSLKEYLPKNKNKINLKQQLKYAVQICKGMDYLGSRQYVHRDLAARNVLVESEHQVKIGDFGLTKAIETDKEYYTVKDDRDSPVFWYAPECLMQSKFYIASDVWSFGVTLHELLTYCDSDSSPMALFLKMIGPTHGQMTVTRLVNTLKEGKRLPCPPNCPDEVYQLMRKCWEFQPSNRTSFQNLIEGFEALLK
T3 sequence (Q9UM73 19-1620): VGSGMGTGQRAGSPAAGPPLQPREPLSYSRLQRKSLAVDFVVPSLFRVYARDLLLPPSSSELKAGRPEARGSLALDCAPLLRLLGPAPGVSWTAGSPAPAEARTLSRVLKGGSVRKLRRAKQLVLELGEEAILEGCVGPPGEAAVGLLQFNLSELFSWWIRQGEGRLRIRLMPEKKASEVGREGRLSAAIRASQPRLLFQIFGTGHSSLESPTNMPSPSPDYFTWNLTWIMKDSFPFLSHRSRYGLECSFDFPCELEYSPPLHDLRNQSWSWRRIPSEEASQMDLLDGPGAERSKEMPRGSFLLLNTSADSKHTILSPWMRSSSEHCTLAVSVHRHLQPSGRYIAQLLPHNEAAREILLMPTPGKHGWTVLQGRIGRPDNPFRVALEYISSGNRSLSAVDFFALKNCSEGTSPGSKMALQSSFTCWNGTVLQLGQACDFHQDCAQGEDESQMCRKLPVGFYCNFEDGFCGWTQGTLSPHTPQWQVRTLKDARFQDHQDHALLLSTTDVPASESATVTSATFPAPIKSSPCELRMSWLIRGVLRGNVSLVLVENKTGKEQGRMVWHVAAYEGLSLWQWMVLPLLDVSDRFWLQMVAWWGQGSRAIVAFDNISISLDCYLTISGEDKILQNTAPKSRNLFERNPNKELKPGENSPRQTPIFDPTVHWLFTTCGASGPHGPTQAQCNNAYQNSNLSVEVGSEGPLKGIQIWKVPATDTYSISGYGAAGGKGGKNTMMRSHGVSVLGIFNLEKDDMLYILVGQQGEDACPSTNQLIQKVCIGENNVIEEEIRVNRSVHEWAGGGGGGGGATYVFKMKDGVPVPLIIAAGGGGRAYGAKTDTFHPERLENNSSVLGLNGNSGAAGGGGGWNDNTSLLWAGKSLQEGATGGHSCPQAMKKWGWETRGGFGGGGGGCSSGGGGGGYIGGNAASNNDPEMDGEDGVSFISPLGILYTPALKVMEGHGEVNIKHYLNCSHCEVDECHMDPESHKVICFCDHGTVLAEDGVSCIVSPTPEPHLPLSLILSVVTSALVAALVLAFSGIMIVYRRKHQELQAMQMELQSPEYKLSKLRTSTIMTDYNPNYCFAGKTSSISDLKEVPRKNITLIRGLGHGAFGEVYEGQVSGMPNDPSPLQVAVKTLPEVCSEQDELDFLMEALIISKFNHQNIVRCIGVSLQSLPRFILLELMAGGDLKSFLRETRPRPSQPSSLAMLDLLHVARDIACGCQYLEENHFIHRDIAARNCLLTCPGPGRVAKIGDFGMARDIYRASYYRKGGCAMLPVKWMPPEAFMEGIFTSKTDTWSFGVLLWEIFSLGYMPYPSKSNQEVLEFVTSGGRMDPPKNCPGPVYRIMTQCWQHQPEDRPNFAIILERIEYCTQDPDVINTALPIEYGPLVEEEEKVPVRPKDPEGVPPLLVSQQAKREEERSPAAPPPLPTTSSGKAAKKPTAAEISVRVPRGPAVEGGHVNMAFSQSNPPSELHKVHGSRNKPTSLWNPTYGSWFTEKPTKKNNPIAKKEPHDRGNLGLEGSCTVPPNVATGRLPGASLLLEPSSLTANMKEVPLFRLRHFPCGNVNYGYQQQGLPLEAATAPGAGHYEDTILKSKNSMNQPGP

Row | SMILES | IC50 ([1]; Table B1) [nM] | IC50 ([2]; Table B1) [nM] | IC50 ([4]; Table B1) [nM] | IC50 ([5]; Table B1) [nM] | IC50 [1, 8] [nM] | IC50 [2, 9] [nM] | ALK % of inhibition at a concentration of 500 nM or 1 mM [3, 10] [%] | IC50 [4] [nM] | IC50 [5, 11] [nM] | also measured
1 | O=C(CC1CCN(C(=O)c2ccc(F)cc2)CC1)Nc1ccc2cc1CCc1cncc(c1)Nc1ncc(Cl)c(n1)N2 [Example A193, N-[6-Chloro-2,4,8,18,22-pentaazatetracyclo[14.3.1.1(3,7).1(9,13)]docosa-1(20),3(22),4,6,9(21),10,12,16,18-nonaen-12-yl]-2-[1-(4-fluorobenzoyl)piperidin-4-yl]acetamide bis(trifluoroacetate)] |  |  |  |  | > 200 | 12 | 31 | > 200 | > 200 | 
2 | Cc1ncsc1C(=O)N1CCC(CC(=O)Nc2ccc3cc2CCc2cncc(c2)Nc2ncc(Cl)c(n2)N3)CC1 [Example A216, N-[6-Chloro-2,4,8,18,22-pentaazatetracyclo[14.3.1.1(3,7).1(9,13)]docosa-1(20),3(22),4,6,9(21),10,12,16,18-nonaen-12-yl]-2-{1-[(4-methyl-1,3-thiazol-5-yl)carbonyl]piperidin-4-yl}acetamide bis(trifluoroacetate)] |  |  |  |  | > 200 | 80 | 29 | > 200 | > 200 | 
3 | Oc1cc2cc(c1)Nc1nc(ncc1Cl)Nc1cccc(c1)CC2 [Example A22, 6-Chloro-2,4,8,22-tetraazatetracyclo[14.3.1.1(3,7).1(9,13)]docosa-1(20),3(22),4,6,9(21),10,12,16,18-nonaen-11-ol trifluoroacetate] |  |  |  |  | 10 | 11 | 54 | 22 | 6.2 | 
4 | O=C(CC1CCN(C(=O)c2ccc(F)cc2F)CC1)Nc1ccc2cc1CCc1cncc(c1)Nc1ncc(Cl)c(n1)N2 [Example A194, N-[6-Chloro-2,4,8,18,22-pentaazatetracyclo[14.3.1.1(3,7).1(9,13)]docosa-1(20),3(22),4,6,9(21),10,12,16,18-nonaen-12-yl]-2-[1-(2,4-difluorobenzoyl)piperidin-4-yl]acetamide bis(trifluoroacetate)] |  |  |  |  | > 200 | 7.3 | 31 | > 200 | 150 | 
5 | Clc1cnc2nc1Nc1cccc(c1)OCCc1cccc(c1)N2 [Example D8, 6-Chloro-14-oxa-2,4,8,23-tetraazatetracyclo[15.3.1.1(3,7).1(9,13)]tricosa-1(21),3(23),4,6,9(22),10,12,17,19-nonaene trifluoroacetate] |  |  |  |  |  |  |  |  |  | IC50 ([1]; Table D1): 13 nM; IC50 ([2]; Table D1): 7.9 nM; IC50 ([3]; Table D1, 90 μM ATP): 351 nM; IC50 ([4]; Table D1): 19 nM; IC50 ([5]; Table D1): 5.4 nM
6 | N#Cc1ccnc(N2CCC(CC(=O)Nc3ccc4cc3CCc3cncc(c3)Nc3ncc(Cl)c(n3)N4)CC2)c1 [Example A178, N-[6-Chloro-2,4,8,18,22-pentaazatetracyclo[14.3.1.1(3,7).1(9,13)]docosa-1(20),3(22),4,6,9(21),10,12,16,18-nonaen-12-yl]-2-[1-(4-cyanopyridin-2-yl)piperidin-4-yl]acetamide tris(trifluoroacetate)] |  |  |  |  | > 200 | 68 | 26 | > 200 | > 200 | 
7 | O=C(CC1CCN(C(=O)Nc2ccccc2)CC1)Nc1ccc2cc1CCc1cncc(c1)Nc1ncc(Cl)c(n1)N2 [Example A77, 4-(2-{[6-Chloro-2,4,8,18,22-pentaazatetracyclo[14.3.1.1(3,7).1(9,13)]docosa-1(20),3(22),4,6,9(21),10,12,16,18-nonaen-12-yl]amino}-2-oxoethyl)-N-phenylpiperidine-1-carboxamide bis(trifluoroacetate)] |  |  |  |  | 35 | 0.6 | 35 | 4 | 0.7 | 
8 | CC(C)S(=O)(=O)N1CCC(CC(=O)Nc2ccc3cc2CCc2cccc(c2)Nc2ncc(Cl)c(n2)N3)CC1 [Example A82, N-[6-Chloro-2,4,8,22-tetraazatetracyclo[14.3.1.1(3,7).1(9,13)]docosa-1(20),3(22),4,6,9(21),10,12,16,18-nonaen-12-yl]-2-[1-(isopropylsulfonyl)piperidin-4-yl]acetamide trifluoroacetate] |  |  |  |  | 17 | 7.3 | 31 | 13 | 3.7 | 

Further lines, with some results ahead:

Row | IC50 ([1]; Table B1) [nM] | IC50 ([2]; Table B1) [nM] | IC50 ([4]; Table B1) [nM] | IC50 ([5]; Table B1) [nM] | IC50 [1, 8] [nM] | IC50 [2, 9] [nM] | ALK % of inhibition at a concentration of 500 nM or 1 mM [3, 10] [%] | IC50 [4] [nM] | IC50 [5, 11] [nM] | SMILES | also measured
9 | > 400 | 3.8 | 180 | 130 |  |  |  |  |  | Cc1nc(S(=O)(=O)N2CCC(CN(C)Cc3ccc4cc3CCc3cncc(c3)Nc3ncc(Cl)c(n3)N4)CC2)cn1C [Example B343, 1-[6-Chloro-2,4,8,18,22-pentaazatetracyclo[14.3.1.1(3,7).1(9,13)]docosa-1(20),3(22),4,6,9(21),10,12,16,18-nonaen-12-yl]-N-({1-[(1,2-dimethyl-1H-imidazol-4-yl)sulfonyl]piperidin-4-yl}methyl)-N-methylmethanamine tris(trifluoroacetate)] | ALK % of inhibition at a concentration of 500 nM or 1 mM ([3]; percentage inhibition of the example compound at a concentration of 500 nM or 1 mM (not specified which)): 42%
10 | 50 | 2.2 | 19 | 7.9 |  |  |  |  |  | O=C(Nc1ccc(Cl)nc1)Nc1ccc2cc1CCc1cccc(c1)Nc1ncc(Cl)c(n1)N2 [Example B121, N-(6-Chloropyridin-3-yl)-N′-[6-chloro-2,4,8,22-tetraazatetracyclo[14.3.1.1(3,7).1(9,13)]docosa-1(20),3(22),4,6,9(21),10,12,16,18-nonaen-12-yl]urea bis(trifluoroacetate)] | ALK % of inhibition at a concentration of 500 nM or 1 mM [3, 6]: 39%
11 | 454 | 119 | > 1000 | 410 |  |  |  |  |  | O=C(Nc1cc2cc(c1)Nc1nc(ncc1Cl)Nc1cccc(c1)CC2)c1ccccn1 [Example B201, N-[6-Chloro-2,4,8,22-tetraazatetracyclo[14.3.1.1(3,7).1(9,13)]docosa-1(20),3(22),4,6,9(21),10,12,16,18-nonaen-11-yl]pyridine-2-carboxamide trifluoroacetate] | IC50 [3, 7]: > 10000 nM
12 | 3.7 | 0.88 | 0.53 | 0.6 |  |  |  |  |  | CC(=O)Nc1ccc(C(=O)Nc2ccc3cc2CCc2cccc(c2)Nc2ncc(Cl)c(n2)N3)cc1 [Example B45, 4-(Acetylamino)-N-[6-chloro-2,4,8,22-tetraazatetracyclo[14.3.1.1(3,7).1(9,13)]docosa-1(20),3(22),4,6,9(21),10,12,16,18-nonaen-12-yl]benzamide trifluoroacetate] | IC50 [3, 7]: 95 nM
13 | 76 | 9 | 19 | 17 |  |  |  |  |  | CC(C)C(=O)N1CC[C@H](NC(=O)Nc2ccc3cc2CCc2cccc(c2)Nc2ncc(Cl)c(n2)N3)C1 [Example B229, N-[6-Chloro-2,4,8,22-tetraazatetracyclo[14.3.1.1(3,7).1(9,13)]docosa-1(20),3(22),4,6,9(21),10,12,16,18-nonaen-12-yl]-N′-[(3S)-1-isobutyrylpyrrolidin-3-yl]urea trifluoroacetate] | ALK % of inhibition at a concentration of 500 nM or 1 mM [3, 6]: 6.5%
14 | 81 | 9.5 | 81 | 29 |  |  |  |  |  | CN1CC[C@H](NC(=O)Nc2ccc3cc2CCc2cccc(c2)Nc2ncc(Cl)c(n2)N3)C1 [Example B261, N-[6-Chloro-2,4,8,22-tetraazatetracyclo[14.3.1.1(3,7).1(9,13)]docosa-1(20),3(22),4,6,9(21),10,12,16,18-nonaen-12-yl]-N′-[(3S)-1-methylpyrrolidin-3-yl]urea bis(trifluoroacetate)] | ALK % of inhibition at a concentration of 500 nM or 1 mM [3, 6]: 24%
